The values that follow come from US7803792B2, “Quaternary ammonium compounds” (Asahi Kasei Pharma Corporation, priority 2002, dated 2010).

Structures are written as SMILES.

Data set [1] relates to Cholic acid-loaded rat model. Kind of data set: Bile acid-decreasing effect in portal vein of rats loaded with cholic acid (Test Example 2). The class given is in vivo. The conditions noted are these: portal vein blood after 2 hours. The procedure:
Bile Acid-Decreasing Effect in Portal Vein of Rats Loaded With Cholic Acid
In this test example, the test for confirming the bile acid-decreasing effect in portal vein of cholic acid-loaded rats was carried out according to the method described in Pharmacology and Therapeutics [Jpn Pharmacol. Ther., Vol. 24 Supplement, 1996, 103 (S-577)-110 (S-584)].
That is, 7 to 9 weeks old SD (IGS) rats were starved on the day before the test and thereafter. […] After 2 hours from the administration, a sample of blood was taken from a portal vein and total serum bile acid level was measured to study the effect of the test compound (n=6). Further, as a control group, a group (n=6) loaded with cholic acid (200 mg/kg) only was prepared and the same test procedure was followed. A commercially available kit (trade name: SOTANJUSAN-TEST WAKO-(SOTANJUSAN=total bile acid), manufactured by WAKO PURE CHEMICAL […], LTD.) was used for the measurement of bile acid. Assuming the value of the control group, which is a group in which no test compound was used, as 100%, the rate of decrease (percentage (%) of decrease) of the bile acid level when a fixed amount of the test compound was used was determined.

Data set [2] addresses T1, human IBAT (Homo sapiens, UniProt Q12908).
T1 construct: expressed in transfected cells; host or cells: Cos 7
T1 sequence (Q12908 1-348): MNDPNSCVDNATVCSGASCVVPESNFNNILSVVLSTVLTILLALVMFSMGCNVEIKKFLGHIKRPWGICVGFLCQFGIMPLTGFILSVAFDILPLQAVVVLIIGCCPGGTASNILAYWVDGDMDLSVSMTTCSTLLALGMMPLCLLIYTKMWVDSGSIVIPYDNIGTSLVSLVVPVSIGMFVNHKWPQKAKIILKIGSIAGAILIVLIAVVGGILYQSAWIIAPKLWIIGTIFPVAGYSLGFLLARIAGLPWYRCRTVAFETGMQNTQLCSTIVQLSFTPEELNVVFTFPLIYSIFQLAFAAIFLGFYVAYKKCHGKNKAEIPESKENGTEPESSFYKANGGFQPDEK
Kind of data set: In vitro assay of temporarily expressed human IBAT transporter using Cos 7 cells (Test Example 8). The data set is classed as cell-based. The note with it: Cos 7 cells temporarily expressing human IBAT; [3H] taurocholate 8 μM, 37° C., 60 minutes. Here is the method:
In Vitro Assay of Compounds Which Inhibit Temporarily Expressed Human IBAT Transporter or Rat IBAT Transporter Using Cos 7 Cells
In this test example, the in vitro assay of the compounds which inhibit temporarily expressed human IBAT transporter or rat IBAT transporter using Cos cells was carried out according to the method described in Am. J. Physiol., 274, G157-169.
That is, […] Cos 7 were inoculated on a 24-well cell plate. One day later, 0.3 μg per well of cDNA of a human IBAT or a rat IBAT was transfected by using FuGENE6 (manufactured by ROCHE PHARMACEUTICAL CO., LTD.). For the assay, the cells cultured for one day after the transfection were used and the following procedure was followed. The cells were washed once with an assay buffer, Hank's buffer solution containing 25 mM glucose and with 10 mM HEPES (pH 7.4), and then the assay buffer was replaced by an assay buffer to which the test compound was added. After adding [^3H] taurocholate to a final concentration of 8 μM, the cells were incubated at 37° C. for 60 minutes. [^3H] taurocholate was allowed to be incorporated in Cos 7 cells through human IBAT or rat IBAT. The reaction was stopped by washing twice with a buffer prepared by adding 1 mM taurocholate to the assay buffer and lyzing the cells with 0.2M NaOH. Measurement of radioactivity was carried out by introducing the cell lyzate in 4 ml of liquid scintillation cocktail, stirring the mixture well, and then measuring the radioactivity by a scintillation counter.

The subject of data set [3] is Caco 2 cells. Put plainly: Toxicity with respect to alimentary canal: cytotoxicity to Caco 2, LDH activity (Test Example 12). The data set is classed as cell-based, human. The note with it: LDH activity after 2 hours, relative to cytolytic agent = 100%. The procedure:
Toxicity With Respect to Alimentary Canal
To evaluate the toxicity of the compounds of the present invention to the alimentary canal, the cytotoxicity to Caco 2, which is a human originated small intestine epithelial cell line, was tested by referring to the method of Bestwick C S et al. [Biochimica et Biophysica Acta 1474: 47-55, 1999].
That is, Caco 2 cells (purchased from ATCC) were inoculated on a 96-well plate such that there were 10,000 cells/well [MEM-E medium, 10% FBS (Fetal Bovine Serum), 1% NEAA (Non Essential Amino Acid) solution, (both manufactured by GIBCO PHARMACEUTICAL COMPANY)]. After culturing for 48 hours, the test compounds were diluted with the culture medium and added to the respective wells. After 2 hours, 50 μl of the culture broth was collected and the LDH activity in the collected culture broth was measured by using an LDH activity measuring kit (CytoTox 96 Non-Radioactive Cytotoxicity Assay, manufactured by PROMEGA CORPORATION). Relative activities were calculated assuming the LDH activity as 100% when the Caco 2 cells were treated with the cytolytic agent and the obtained relative activities were taken as cytotoxicities to Caco 2 cell.

[4] abbreviates: 0.1 mg/kg oral with cholic acid 200 mg/kg, Tween 20 0.05%.
Where [5] appears, read: 0.1 mg/kg oral with cholic acid 200 mg/kg, HCO-60 0.1%.
Setting [6] is: 0.3 mg/kg oral with cholic acid 200 mg/kg, HCO-60 0.1%.

Regarding `CCCCC1(CCCC)CS(=O)(=O)c2ccc(N(C)C)cc2C(c2cccc(NC(=S)NCCC[N+](C)(C)Cc3ccccc3)c2)N1.[Br-]` (stereo not drawn) [Example 425], the “Rate of decrease (%) of bile acid” value in data set [1] (setting [4]) turned out to be 21%. Besides, half-maximal inhibition in data set [2] (IC50) required 170 nM.

For `CCCCC1(CCCC)CS(=O)(=O)c2ccc(N(C)C)cc2C(c2cccc(NC(=S)NCCCC[N+](C)(C)Cc3ccccc3)c2)N1.[Br-]` (stereo not drawn) [Example 801], the “Rate of decrease (%) of bile acid” value in data set [1] (setting [5]) is reported as 33%.

Turning to `CCCCC1(CCCC)CS(=O)(=O)c2ccc(N(C)C)cc2C(c2cccc(NC(=S)NCCCCC[N+](C)(C)Cc3ccccc3)c2)N1.[Br-]` (stereo not drawn) [Example 1178], the “Rate of decrease (%) of bile acid” value in data set [1] (setting [5]) was 18%. Also, in data set [2], the IC50 – broadly, the concentration at which inhibition is half-maximal – stood at 93 nM.

Consider `CCCCC1(CCCC)CS(=O)(=O)c2ccc(N(C)C)cc2C(c2cccc(NC(=S)Nc3ccc(C[N+](C)(C)CCCC)cc3)c2)N1.[Br-]` (stereo not drawn) [Example 3409], for which, in data set [1] (setting [5]), the “Rate of decrease (%) of bile acid” value was 28%. For the same compound, the IC50 in data set [2] was 45 nM. Also, the “Toxicity (%) to Caco 2” value in data set [3] (3 μM), in data set [3] (10 μM) and in data set [3] (30 μM) was less than 1% throughout.

As for `CCCCC1(CCCC)CS(=O)(=O)c2ccc(N(C)C)cc2C(c2cccc(NC(=S)Nc3ccc(C[N+]4(Cc5ccccc5)CCC(CO)CC4)cc3)c2)N1.[Br-]` (stereo not drawn) [Example 3607], the “Rate of decrease (%) of bile acid” value in data set [1] (setting [5]) was found to be 36%. In data set [2], this compound displayed an IC50 of 41 nM. The “Toxicity (%) to Caco 2” value in data set [3] (3 μM), in data set [3] (10 μM) and in data set [3] (30 μM) was less than 1% throughout.

For `CCCCC1(CCCC)CS(=O)(=O)c2ccc(N(C)C)cc2C(c2cccc(NC(=S)Nc3ccc(C[N+]4(Cc5ccccc5)CCC(CCO)CC4)cc3)c2)N1.[Br-]` (stereo not drawn) [Example 3608], the “Rate of decrease (%) of bile acid” value in data set [1] (setting [5]) came to 43%. The compound further yielded an IC50 in data set [2] of 59 nM. The “Toxicity (%) to Caco 2” value in data set [3] (3 μM), in data set [3] (10 μM) and in data set [3] (30 μM) was less than 1% in each case.

Turning to `CCCCC1(CCCC)CS(=O)(=O)c2ccc(N(C)C)cc2C(c2cccc(NC(=S)Nc3ccc(C[n+]4ccc(CC)cc4)cc3)c2)N1.[Br-]` (stereo not drawn) [Example 3710], the “Rate of decrease (%) of bile acid” value in data set [1] (setting [5]) was 20%. Also, the IC50 in data set [2] was found to be 52 nM. For the same compound, the “Toxicity (%) to Caco 2” value in data set [3] (3 μM), in data set [3] (10 μM) and in data set [3] (30 μM) was less than 1% throughout.

In data set [2], `CCCCc1ccc[n+](Cc2ccc(NC(=S)Nc3cccc(C4NC(CCCC)(CCCC)CS(=O)(=O)c5ccc(N(C)C)cc54)c3)cc2)c1.[Br-]` (stereo not drawn) [Example 3723] showed an IC50 of 25 nM. In addition, the “Toxicity (%) to Caco 2” value in data set [3] (3 μM), in data set [3] (10 μM) and in data set [3] (30 μM) was less than 1% each time.

Consider `CCCCC1(CCCC)CS(=O)(=O)c2ccc(N(C)C)cc2C(c2cccc(NC(=S)Nc3ccc(C[n+]4ccc(C#N)cc4)cc3)c2)N1.[Br-]` (stereo not drawn) [Example 3753], for which the “Rate of decrease (%) of bile acid” value in data set [1] (setting [6]) is on record as 8.5%.

For `CCCCC1(CCCC)CS(=O)(=O)c2ccc(N(C)C)cc2C(c2cccc(NC(=S)Nc3ccc(C[n+]4cccc(CC#N)c4)cc3)c2)N1.[Br-]` (stereo not drawn) [Example 3759], in data set [1] (setting [6]), the “Rate of decrease (%) of bile acid” value was 36%. Also, the “Toxicity (%) to Caco 2” value in data set [3] (3 μM), in data set [3] (10 μM) and in data set [3] (30 μM) was less than 1% in each case.

As to `CCCCC1(CCCC)CS(=O)(=O)c2ccc(N(C)C)cc2C(c2cccc(NC(=S)Nc3ccc(C[n+]4ccc5ccccc5c4)cc3)c2)N1.[Br-]` (stereo not drawn) [Example 3783], the “Rate of decrease (%) of bile acid” value in data set [1] (setting [5]) stood at 16%. The same compound came in with an IC50 in data set [2] of 48 nM. Further, the “Toxicity (%) to Caco 2” value in data set [3] (3 μM), in data set [3] (10 μM) and in data set [3] (30 μM) was less than 1% each time.

For the compound `CCCCC1(CCCC)CS(=O)(=O)c2ccc(N(C)C)cc2C(c2cccc(NC(=S)CCCCC[N+](C)(C)Cc3ccccc3)c2)N1` (stereo not drawn) [Example 3835], the “Rate of decrease (%) of bile acid” value in data set [1] (setting [4]) was 23%. Besides, in data set [2], the IC50 came out at 43 nM. The “Toxicity (%) to Caco 2” value in data set [3] (3 μM), in data set [3] (10 μM) and in data set [3] (30 μM) was less than 1% throughout.

Turning to `CCCCC1(CCCC)CS(=O)(=O)c2ccc(N(C)C)cc2C(c2cccc(NC(=S)Nc3cccc(C[N+](C)(C)Cc4ccccc4)c3)c2)N1.[Br-]` (stereo not drawn) [Example 4257], in data set [1] (setting [5]), the “Rate of decrease (%) of bile acid” value came out at 30%.

Regarding `CCCCC1(CCCC)CS(=O)(=O)c2ccc(N(C)C)cc2C(c2cccc(NC(=S)Nc3cccc(C[N+]4(Cc5ccccc5)CCC(CO)CC4)c3)c2)N1` (stereo not drawn) [Example 4424], the “Rate of decrease (%) of bile acid” value in data set [1] (setting [5]) was 17%. The compound also returned an IC50 in data set [2] of 91 nM.

In the case of `CCCCC1(CCCC)CS(=O)(=O)c2ccc(N(C)C)cc2C(c2cccc(NC(=S)Nc3cccc(C[N+]4(Cc5ccccc5)CCC(CCO)CC4)c3)c2)N1` (stereo not drawn) [Example 4425], in data set [1] (setting [5]), the “Rate of decrease (%) of bile acid” value is 22%. In addition, in data set [2], half-maximal inhibition (IC50) required 89 nM.

With `CCCCC1(CCCC)CS(=O)(=O)c2ccc(N(C)C)cc2C(c2cccc(NC(=S)Nc3cccc(C[N+]45CCC(CC4)CC5)c3)c2)N1` (stereo not drawn) [Example 4512], the “Rate of decrease (%) of bile acid” value in data set [1] (setting [5]) was 37%. In data set [2], this compound gave an IC50 of 63 nM.

As for `CCCCC1(CCCC)CS(=O)(=O)c2ccc(N(C)C)cc2C(c2cccc(NC(=S)Nc3ccccc3C[N+]34CCC(CC3)CC4)c2)N1.[Br-]` (stereo not drawn) [Example 4905], in data set [1] (setting [5]), the “Rate of decrease (%) of bile acid” value worked out at 28%.

With `CCCCC1(CCCC)CS(=O)(=O)c2ccc(N(C)C)cc2C(c2cccc(NC(=S)Nc3ccc(CC[N+](C)(C)Cc4ccccc4)cc3)c2)N1` (stereo not drawn) [Example 5043], the “Rate of decrease (%) of bile acid” value in data set [1] (setting [6]) came to 39%. In data set [2], this compound yielded an IC50 of 62 nM. In addition, the “Toxicity (%) to Caco 2” value in data set [3] (3 μM), in data set [3] (10 μM) and in data set [3] (30 μM) was less than 1% in each case.

`CCCCC1(CCCC)CS(=O)(=O)c2ccc(N(C)C)cc2C(c2cccc(NC(=S)Nc3ccc(CC[N+]45CCC(CC4)CC5)cc3)c2)N1` (stereo not drawn) [Example 5298]: the “Rate of decrease (%) of bile acid” value in data set [1] (setting [6]) was determined as 40%. Also, inhibition in data set [2] was half-maximal at 76 nM (IC50). Moreover, the “Toxicity (%) to Caco 2” value in data set [3] (3 μM), in data set [3] (10 μM) and in data set [3] (30 μM) was less than 1% in each case.

Turning to `CCCCC1(CCCC)CS(=O)(=O)c2ccc(N(C)C)cc2C(c2ccc(NC(=S)Nc3ccc(C[N+](C)(C)Cc4ccccc4)cc3)cc2)N1.[Br-]` (stereo not drawn) [Example 5405, Benzyl-(4-{3-[4-(3,3-dibutyl-7-dimethylamino-1,1-dioxo-2,3,4,5-tetrahydro-1,4-benzothiazepin-5-yl)phenyl]thioureido}-benzyl)dimethylammonium bromide], in data set [1] (setting [5]), the “Rate of decrease (%) of bile acid” value is listed as 16%.
